Data reported in ChEMBL document CHEMBL3044572, “Discovery of 2-(4-cyano-3-trifluoromethylphenyl amino)-4-(4-quinazolinyloxy)-6-piperazinyl(piperidinyl)-s-triazines as potential antibacterial agents” (2012).
Converted amounts (≈) assume the structure as drawn. The source made the active and inactive calls. The rule behind the calls is not given here.

Experiments:
[1] = tested on: Candida albicans; test: Antimicrobial activity against Candida albicans MTCC 183 by agar streak dilution method; assay type: functional
[2] = tested on: Aspergillus clavatus; test: Antimicrobial activity against Aspergillus clavatus MTCC 1323 by paper disk diffusion method; assay type: functional
[3] = tested on: Aspergillus niger; test: Antimicrobial activity against Aspergillus niger MTCC 282 by paper-disk diffusion method; assay type: functional
[4] = tested on: Aspergillus fumigatus; test: Antimicrobial activity against Aspergillus fumigatus MTCC 343 by paper-disk diffusion method; assay type: functional
[5] = tested on: Pseudomonas aeruginosa; test: Antimicrobial activity against Pseudomonas aeruginosa MTCC 741 at 100 ug/ml by paper disk diffusion method; assay type: functional, organism-based
[6] = tested on: Shigella flexneri; test: Antimicrobial activity against Shigella flexneri MTCC 1457 by paper disk diffusion method; assay type: functional
[7] = tested on: Proteus vulgaris; test: Antimicrobial activity against Proteus vulgaris MTCC 1771 by paper disk diffusion method; assay type: functional
[8] = tested on: Salmonella typhi; test: Antimicrobial activity against Salmonella enterica subsp. enterica serovar Typhi MTCC 733 by paper disk diffusion method; assay type: functional
[9] = tested on: Klebsiella pneumoniae; test: Antimicrobial activity against Klebsiella pneumoniae MTCC 109 by paper disk diffusion method; assay type: functional
[10] = tested on: Pseudomonas aeruginosa; test: Antimicrobial activity against Pseudomonas aeruginosa MTCC 741 by paper disk diffusion method; assay type: functional
[11] = tested on: Bacillus cereus; test: Antimicrobial activity against Bacillus cereus MTCC 619 by paper disk diffusion method; assay type: functional
[12] = tested on: Escherichia coli; test: Antimicrobial activity against Escherichia coli MTCC 739 by paper disk diffusion method; assay type: functional
[13] = tested on: Staphylococcus aureus; test: Antimicrobial activity against Staphylococcus aureus MTCC 96 by paper-disk diffusion method; assay type: functional
[14] = tested on: Aspergillus clavatus; test: Antimicrobial activity against Aspergillus clavatus MTCC 1323 by agar streak dilution method; assay type: functional
[15] = tested on: Aspergillus fumigatus; test: Antimicrobial activity against Aspergillus fumigatus MTCC 343 by agar streak dilution method; assay type: functional
[16] = tested on: Aspergillus niger; test: Antimicrobial activity against Aspergillus niger MTCC 282 by agar streak dilution method; assay type: functional
[17] = tested on: Proteus vulgaris; test: Antimicrobial activity against Proteus vulgaris MTCC 1771 by agar streak dilution method; assay type: functional
[18] = tested on: Shigella flexneri; test: Antimicrobial activity against Shigella flexneri MTCC 1457 by agar streak dilution method; assay type: functional
[19] = tested on: Klebsiella pneumoniae; test: Antimicrobial activity against Klebsiella pneumoniae MTCC 109 by agar streak dilution method; assay type: functional
[20] = tested on: Salmonella typhi; test: Antimicrobial activity against Salmonella enterica subsp. enterica serovar Typhi MTCC 733 by agar streak dilution method; assay type: functional
[21] = tested on: Pseudomonas aeruginosa; test: Antimicrobial activity against Pseudomonas aeruginosa MTCC 741 by agar streak dilution method; assay type: functional
[22] = tested on: Staphylococcus aureus; test: Antimicrobial activity against Staphylococcus aureus MTCC 96 by agar streak dilution method; assay type: functional
[23] = tested on: Bacillus cereus; test: Antimicrobial activity against Bacillus cereus MTCC 619 by agar streak dilution method; assay type: functional
[24] = tested on: Escherichia coli; test: Antimicrobial activity against Escherichia coli MTCC 739 by agar streak dilution method; assay type: functional
[25] = tested on: Mycobacterium tuberculosis; test: Antimicrobial activity against Mycobacterium tuberculosis H37Rv by Lowenstein and Jensen method; assay type: functional; conditions: for MIC: Mycobacterium tuberculosis, H37Rv
[26] = tested on: Mycobacterium tuberculosis; test: Antimicrobial activity against Mycobacterium tuberculosis H37Rv by BACTEC MGIT method; assay type: functional; conditions: for MIC: Mycobacterium tuberculosis, H37Rv
[27] = tested on: Candida albicans; test: Antimicrobial activity against Candida albicans MTCC 183 by paper-disk diffusion method; assay type: functional

SMILES	MIC [1]	inhibition zone (IZ) [2]	inhibition zone (IZ) [3]	inhibition zone (IZ) [4]	inhibition zone (IZ) [5]	inhibition zone (IZ) [6]	inhibition zone (IZ) [8]	inhibition zone (IZ) [9]	inhibition zone (IZ) [10]	inhibition zone (IZ) [12]	inhibition zone (IZ) [13]	MIC [16]	MIC [17]	MIC [18]	MIC [20]	MIC [22]	MIC [23]	inhibition (INH) [26]	MIC [26]	inhibition zone (IZ) [27]	other results
N#Cc1ccc(Nc2nc(Oc3ncnc4ccccc34)nc(N3CCN(C(c4ccccc4)c4ccc(Cl)cc4)CC3)n2)cc1C(F)(F)F (configuration not stated)	25 mg/L (≈ 36 µM)	24 mm	24 mm	24 mm	inactive	24 mm	27 mm	24 mm	28 mm	26 mm	29 mm	12.5 mg/L (≈ 18 µM)	50 mg/L (≈ 72 µM)	50 mg/L (≈ 72 µM)	6.25 mg/L (≈ 9 µM)	6.25 mg/L (≈ 9 µM)	6.25 mg/L (≈ 9 µM)	99%	6.25 mg/L (≈ 9 µM)	24 mm	inhibition zone (IZ) [7]: 23 mm; inhibition zone (IZ) [11]: 26 mm; MIC [14]: 12.5 mg/L (≈ 18 µM); MIC [15]: 12.5 mg/L (≈ 18 µM); MIC [19]: 25 mg/L (≈ 36 µM); MIC [21]: 6.25 mg/L (≈ 9 µM); MIC [24]: 25 mg/L (≈ 36 µM); inhibition (percent inhibition) [25]: 99%; MIC [25]: 6.25 mg/L (≈ 9 µM)
N#Cc1ccc(Nc2nc(Oc3ncnc4ccccc34)nc(N3CCN(c4cccc(Cl)c4Cl)CC3)n2)cc1C(F)(F)F	6.25 mg/L (≈ 9.79 µM)	23 mm	25 mm	23 mm	inactive	26 mm	26 mm	24 mm	24 mm	24 mm	29 mm	6.25 mg/L (≈ 9.79 µM)	6.25 mg/L (≈ 9.79 µM)	12.5 mg/L (≈ 19.6 µM)	12.5 mg/L (≈ 19.6 µM)	3.12 mg/L (≈ 4.89 µM)	6.25 mg/L (≈ 9.79 µM)	99%	6.25 mg/L (≈ 9.79 µM)	27 mm	inhibition zone (IZ) [7]: 26 mm; inhibition zone (IZ) [11]: 25 mm; MIC [14]: 25 mg/L (≈ 39.2 µM); MIC [15]: 25 mg/L (≈ 39.2 µM); MIC [19]: 50 mg/L (≈ 78.3 µM); MIC [21]: 12.5 mg/L (≈ 19.6 µM); MIC [24]: 50 mg/L (≈ 78.3 µM); inhibition (percent inhibition) [25]: 99%; MIC [25]: 6.25 mg/L (≈ 9.79 µM)
NC(=O)c1cnccn1 [PYRAZINAMIDE]	–	–	–	–	–	–	–	–	–	–	–	–	–	–	–	–	–	99%	6.25 mg/L (≈ 50.8 µM)	–	–
COc1ccc(CN2CCN(c3nc(Nc4ccc(C#N)c(C(F)(F)F)c4)nc(Oc4ncnc5ccccc45)n3)CC2)c(OC)c1OC	12.5 mg/L (≈ 18.6 µM)	25 mm	25 mm	25 mm	inactive	24 mm	25 mm	26 mm	26 mm	28 mm	29 mm	6.25 mg/L (≈ 9.28 µM)	6.25 mg/L (≈ 9.28 µM)	25 mg/L (≈ 37.1 µM)	25 mg/L (≈ 37.1 µM)	3.12 mg/L (≈ 4.63 µM)	3.12 mg/L (≈ 4.63 µM)	99%	6.25 mg/L (≈ 9.28 µM)	26 mm	inhibition zone (IZ) [7]: 25 mm; inhibition zone (IZ) [11]: 27 mm; MIC [14]: 6.25 mg/L (≈ 9.28 µM); MIC [15]: 6.25 mg/L (≈ 9.28 µM); MIC [19]: 6.25 mg/L (≈ 9.28 µM); MIC [21]: 12.5 mg/L (≈ 18.6 µM); MIC [24]: 6.25 mg/L (≈ 9.28 µM); inhibition (percent inhibition) [25]: 99%; MIC [25]: 6.25 mg/L (≈ 9.28 µM)
O=C(O)c1cn(C2CC2)c2cc(N3CCNCC3)c(F)cc2c1=O [CIPROFLOXACIN]	1.56 mg/L (≈ 4.71 µM)	–	30 mm	29 mm	inactive	32 mm	30 mm	33 mm	33 mm	32 mm	30 mm	1.56 mg/L (≈ 4.71 µM)	0.39 mg/L (≈ 1.18 µM)	1.56 mg/L (≈ 4.71 µM)	0.39 mg/L (≈ 1.18 µM)	1.56 mg/L (≈ 4.71 µM)	0.39 mg/L (≈ 1.18 µM)	–	–	33 mm	–
NNC(=O)c1ccncc1 [ISONIAZID]	–	–	–	–	–	–	–	–	–	–	–	–	–	–	–	–	–	–	0.2 mg/L (≈ 1.46 µM)	–	–
